# Active and inactive are the calls of the source. The rule behind the calls is not given here.
# Tested on: CCRIS mutagenicity, Ames/micronucleus/aberration tests
# Experiment: CCRIS mutagenicity studies
# [1] = Test System: AMES SALMONELLA TYPHIMURIUM, Strain/Indicator: TA1537, Metabolic Activation: NONE, Method: STANDARD PLATE
smiles,measurement,setting,value
O=c1[nH]c(=O)n([C@@H]2O[C@H](CO)[C@@H](O)[C@@H]2O)cc1/C=C/Br,mutagenic call,"Test System: CHINESE HAMSTER V-79, Strain/Indicator: V-79/8-AZAGUANINE, Metabolic Activation: NONE",inactive; negative
same,mutagenic call,"Test System: UDS RODENT HEPATOCYTES, Strain/Indicator: THY INCORP, Metabolic Activation: NONE",inactive; negative
O=C(O)c1ccccc1[N+](=O)[O-],mutagenic call,"Test System: AMES SALMONELLA TYPHIMURIUM, Strain/Indicator: TA97, Metabolic Activation: HAMSTER, LIVER, S-9, AROCLOR 1254 (10%), Method: PREINCUBATION",inactive; negative
same,mutagenic call,"Test System: AMES SALMONELLA TYPHIMURIUM, Strain/Indicator: TA97, Metabolic Activation: NONE, Method: PREINCUBATION",inactive; negative
same,mutagenic call,"Test System: AMES SALMONELLA TYPHIMURIUM, Strain/Indicator: TA97, Metabolic Activation: RAT, LIVER, S-9, AROCLOR 1254 (10%), Method: PREINCUBATION",inactive; negative
same,mutagenic call,"Test System: AMES SALMONELLA TYPHIMURIUM, Strain/Indicator: TA98, Metabolic Activation: HAMSTER, LIVER, S-9, AROCLOR 1254 (10%), Method: PREINCUBATION",inactive; negative
same,mutagenic call,"Test System: AMES SALMONELLA TYPHIMURIUM, Strain/Indicator: TA98, Metabolic Activation: NONE, Method: PREINCUBATION",active; positive
same,mutagenic call,"Test System: AMES SALMONELLA TYPHIMURIUM, Strain/Indicator: TA98, Metabolic Activation: RAT, LIVER, S-9, AROCLOR 1254 (10%), Method: PREINCUBATION",inactive; negative
same,mutagenic call,"Test System: AMES SALMONELLA TYPHIMURIUM, Strain/Indicator: TA98, Metabolic Activation: RAT, LIVER, S-9, KANECHLOR 500, Method: PREINCUBATION",active; positive
same,mutagenic call,"Test System: AMES SALMONELLA TYPHIMURIUM, Strain/Indicator: TA100, Metabolic Activation: HAMSTER, LIVER, S-9, AROCLOR 1254 (5 OR 30%), Method: PREINCUBATION",inactive; negative
same,mutagenic call,"Test System: AMES SALMONELLA TYPHIMURIUM, Strain/Indicator: TA100, Metabolic Activation: HAMSTER, LIVER, S-9, AROCLOR 1254, FLAVIN MONONUCLEOTIDE, Method: PREINCUBATION",inactive; negative
same,mutagenic call,"Test System: AMES SALMONELLA TYPHIMURIUM, Strain/Indicator: TA100, Metabolic Activation: HAMSTER, LIVER, S-9, AROCLOR 1254, Method: PREINCUBATION",inactive; negative
same,mutagenic call,"Test System: AMES SALMONELLA TYPHIMURIUM, Strain/Indicator: TA100, Metabolic Activation: RAT, LIVER, S-9, AROCLOR 1254 (5 OR 30%), Method: PREINCUBATION",inactive; negative
same,mutagenic call,"Test System: AMES SALMONELLA TYPHIMURIUM, Strain/Indicator: TA100, Metabolic Activation: RAT, LIVER, S-9, AROCLOR 1254 (10%), Method: PREINCUBATION",inactive; negative
same,mutagenic call,"Test System: AMES SALMONELLA TYPHIMURIUM, Strain/Indicator: TA100, Metabolic Activation: RAT, LIVER, S-9, AROCLOR 1254, FLAVIN MONONUCLEOTIDE, Method: PREINCUBATION",inactive; negative
same,mutagenic call,"Test System: AMES SALMONELLA TYPHIMURIUM, Strain/Indicator: TA100, Metabolic Activation: RAT, LIVER, S-9, AROCLOR 1254, Method: STANDARD PLATE",inactive; negative
same,mutagenic call,"Test System: AMES SALMONELLA TYPHIMURIUM, Strain/Indicator: TA100, Metabolic Activation: RAT, LIVER, S-9, KANECHLOR 500, Method: PREINCUBATION",active; positive
same,mutagenic call,"Test System: AMES SALMONELLA TYPHIMURIUM, Strain/Indicator: TA1535, Metabolic Activation: HAMSTER, LIVER, S-9, AROCLOR 1254 (10%), Method: PREINCUBATION",inactive; negative
same,mutagenic call,"Test System: AMES SALMONELLA TYPHIMURIUM, Strain/Indicator: TA1535, Metabolic Activation: NONE, Method: PREINCUBATION",inactive; negative
same,mutagenic call,"Test System: AMES SALMONELLA TYPHIMURIUM, Strain/Indicator: TA1535, Metabolic Activation: RAT, LIVER, S-9, AROCLOR 1254 (10%), Method: PREINCUBATION",inactive; negative
same,mutagenic call,"Test System: AMES SALMONELLA TYPHIMURIUM, Strain/Indicator: TA1537, Metabolic Activation: NONE, Method: PREINCUBATION",inactive; negative
same,mutagenic call,"Test System: AMES SALMONELLA TYPHIMURIUM, Strain/Indicator: TA1538, Metabolic Activation: NONE, Method: PREINCUBATION",active; positive
CS(=O)(=O)Nc1ccc(Nc2c3ccccc3nc3ccccc23)cc1,mutagenic call,[1],active; positive
CCCCC(=O)Nc1snc2ccc(Cl)cc12,mutagenic call,"Test System: AMES SALMONELLA TYPHIMURIUM, Strain/Indicator: TA100, Metabolic Activation: NONE, Method: STANDARD PLATE",inactive; negative
same,mutagenic call,"Test System: AMES SALMONELLA TYPHIMURIUM, Strain/Indicator: TA100, Metabolic Activation: S-9, Method: STANDARD PLATE",inactive; negative
same,mutagenic call,[1],inactive; negative
same,mutagenic call,"Test System: AMES SALMONELLA TYPHIMURIUM, Strain/Indicator: TA1537, Metabolic Activation: S-9, Method: STANDARD PLATE",inactive; negative
CC(=O)Nc1ccc2c(c1)Cc1cc(NC(C)=O)ccc1-2,mutagenic call,"Test System: AMES SALMONELLA TYPHIMURIUM, Strain/Indicator: TA1538, Metabolic Activation: RAT, LIVER, S-9, PHENOBARBITAL, Method: STANDARD PLATE",active; positive

# Source: PubChem BioAssay AID1259407 (Chemical Carcinogenesis Research Information System (CCRIS), 2018)
